Key:
[1] = molecular target: T1, Alpha-2 adrenergic receptor (Mus musculus, UniProt P30545+Q01338+Q01337); experiment: Compound was evaluated for inhibition of binding of [3H]MK-91 to Alpha-2 adrenergic receptor in mouse Malpha2-10H clone; format: protein assay
T1 sequence (P30545 whole entry): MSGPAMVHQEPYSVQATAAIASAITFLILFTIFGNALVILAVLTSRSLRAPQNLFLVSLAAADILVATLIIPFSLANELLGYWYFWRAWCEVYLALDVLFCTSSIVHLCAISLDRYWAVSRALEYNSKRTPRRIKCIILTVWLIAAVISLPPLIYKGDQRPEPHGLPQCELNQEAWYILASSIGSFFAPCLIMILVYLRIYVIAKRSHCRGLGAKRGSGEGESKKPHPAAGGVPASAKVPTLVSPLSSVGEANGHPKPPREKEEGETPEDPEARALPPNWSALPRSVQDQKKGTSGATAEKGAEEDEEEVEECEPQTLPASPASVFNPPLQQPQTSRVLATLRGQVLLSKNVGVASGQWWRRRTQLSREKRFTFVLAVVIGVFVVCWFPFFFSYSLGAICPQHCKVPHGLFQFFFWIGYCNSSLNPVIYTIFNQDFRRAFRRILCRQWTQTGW
T1 sequence (Q01338 whole entry): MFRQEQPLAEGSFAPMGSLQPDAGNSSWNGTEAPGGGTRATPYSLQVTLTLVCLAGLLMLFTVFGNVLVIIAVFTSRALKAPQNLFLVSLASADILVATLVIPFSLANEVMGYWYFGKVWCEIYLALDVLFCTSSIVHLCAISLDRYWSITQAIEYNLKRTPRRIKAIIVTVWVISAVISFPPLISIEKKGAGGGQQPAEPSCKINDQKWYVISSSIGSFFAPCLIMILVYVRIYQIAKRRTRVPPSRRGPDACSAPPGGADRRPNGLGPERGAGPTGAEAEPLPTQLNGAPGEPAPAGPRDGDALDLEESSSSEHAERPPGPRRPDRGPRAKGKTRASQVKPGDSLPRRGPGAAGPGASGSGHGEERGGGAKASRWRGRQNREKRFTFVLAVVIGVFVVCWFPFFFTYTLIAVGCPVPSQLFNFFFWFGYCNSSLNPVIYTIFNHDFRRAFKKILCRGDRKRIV
T1 sequence (Q01337 whole entry): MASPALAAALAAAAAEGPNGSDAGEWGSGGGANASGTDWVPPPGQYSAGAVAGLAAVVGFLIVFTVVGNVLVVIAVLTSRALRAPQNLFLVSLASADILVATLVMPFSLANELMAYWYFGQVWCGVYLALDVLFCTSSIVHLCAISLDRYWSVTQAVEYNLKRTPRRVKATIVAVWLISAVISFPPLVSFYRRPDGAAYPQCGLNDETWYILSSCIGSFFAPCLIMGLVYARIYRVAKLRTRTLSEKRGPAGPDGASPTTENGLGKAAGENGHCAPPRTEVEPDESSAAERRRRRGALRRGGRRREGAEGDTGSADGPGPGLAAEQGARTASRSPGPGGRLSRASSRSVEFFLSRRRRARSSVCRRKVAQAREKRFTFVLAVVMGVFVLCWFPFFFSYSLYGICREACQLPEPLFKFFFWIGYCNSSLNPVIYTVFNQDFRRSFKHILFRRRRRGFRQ

[2] = molecular target: T2, Alpha-2A adrenergic receptor (Sus scrofa, UniProt P18871); experiment: Compound was evaluated for inhibition of binding of [3H]MK-91 to Alpha-2 adrenergic receptor in porcine alpha2-clone
T2 sequence (P18871 whole entry): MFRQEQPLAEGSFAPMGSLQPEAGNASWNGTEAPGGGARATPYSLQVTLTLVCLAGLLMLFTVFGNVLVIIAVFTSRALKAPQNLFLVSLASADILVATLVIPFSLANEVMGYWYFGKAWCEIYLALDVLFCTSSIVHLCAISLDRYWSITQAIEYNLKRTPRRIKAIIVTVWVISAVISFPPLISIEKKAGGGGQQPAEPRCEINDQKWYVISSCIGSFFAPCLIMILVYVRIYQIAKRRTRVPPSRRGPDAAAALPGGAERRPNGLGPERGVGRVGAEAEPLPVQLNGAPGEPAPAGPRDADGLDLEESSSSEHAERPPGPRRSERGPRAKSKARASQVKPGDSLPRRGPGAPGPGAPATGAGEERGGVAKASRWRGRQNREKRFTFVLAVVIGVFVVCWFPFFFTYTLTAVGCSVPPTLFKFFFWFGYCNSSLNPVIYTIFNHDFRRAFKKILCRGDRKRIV

[3] = molecular target: T1, Alpha-2 adrenergic receptor; experiment: Compound was evaluated for inhibition of binding of [3H]MK-91 to Alpha-2 adrenergic receptor in mouse Malpha2-4H; format: protein assay
[4] = molecular target: T3, Alpha-2A adrenergic receptor (Bos taurus, UniProt Q28838); experiment: Compound was evaluated for inhibition of binding of [3H]MK-91 to Alpha-2 adrenergic receptor in bovine pineal
T3 sequence (Q28838 whole entry): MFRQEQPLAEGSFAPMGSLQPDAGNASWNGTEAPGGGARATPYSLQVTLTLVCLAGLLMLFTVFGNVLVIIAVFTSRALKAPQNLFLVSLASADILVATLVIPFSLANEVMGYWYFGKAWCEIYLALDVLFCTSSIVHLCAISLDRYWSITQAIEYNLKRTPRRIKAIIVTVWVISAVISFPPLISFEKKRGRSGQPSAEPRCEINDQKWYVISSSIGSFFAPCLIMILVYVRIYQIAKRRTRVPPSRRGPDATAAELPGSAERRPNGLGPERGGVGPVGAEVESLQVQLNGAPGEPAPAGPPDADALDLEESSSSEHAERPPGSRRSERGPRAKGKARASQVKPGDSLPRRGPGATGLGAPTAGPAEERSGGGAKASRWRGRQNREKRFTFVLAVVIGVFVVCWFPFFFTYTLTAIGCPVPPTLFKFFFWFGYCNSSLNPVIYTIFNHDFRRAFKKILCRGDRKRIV

[5] = molecular target: T1, Alpha-2 adrenergic receptor; experiment: Compound was evaluated for inhibition of binding of [3H]-MK-91 to Alpha-2 adrenergic receptor in mouse NG-108 cells; format: cell-based

Cc1cc(C(C)(C)C)c(O)c(C)c1CC1=NCCN1 [OXYMETAZOLINE]
Ki [1]: 0.033 µM | Ki [2]: 0.021 µM | Ki [3]: 0.109 µM | Ki [4]: 0.0015 µM | Ki [5]: 0.132 µM
